Source: US10765675B2, “Compositions and methods for treating Ewing family tumors” (priority 2015, dated 2020)
Structures can show the parent of a compound that is named as a salt.

Tests used:
MB231-Bo cancer cells = conditions: same doses as tested on TC-32 and TC-71 cells
Procedure: (§2) The TC-32 cell line was derived from a newly diagnosed PNET patient and the TC-71 cell line was derived from a tumor recurrent after chemotherapy in a Ewing's sarcoma patient.
(§3) The cells were cultured in DMEM media supplemented with 10% FBS, 1% L-glutamate, 1% sodium pyruvate, 1% penicillin/streptomycin, and 1% non-essential amino acids in a humidified atmosphere at 37° C. and in 5% CO2. The ratio of cells to well surface and media volume was kept constant in all experiments.
(§4) Treated cells were imaged with an IVIS200 system (Xenogen Corporation, Alameda, Calif.) using the bioluminescent imaging function. An average of three kinetic bioluminescent acquisitions was obtained within 5 min Regions of interest were automatically drawn over wells and quantified with Living Image Software version 2.50.1. Data was analyzed based on total photon flux emission minus the background photon flux of blank wells. Three separate experiments were performed, with six replicate wells for each data point.

3T3 fibroblast cells = conditions: same doses as tested on TC-32 and TC-71 cells
Procedure: as §2, §3, §4

[1] = tested on: DNA damage and DNA repair pathway genes in TC-32 cells; conditions: 12 h
Source text: (§5) Housekeeping genes were included on the array to normalize RNA amounts.

[2] = tested on: DNA damage and DNA repair pathway genes in TC-71 cells; conditions: 12 h
Source text: as §5

sarcomas = conditions: cited from earlier work
TC-32 cells = experiment: cells; conditions: Homo sapiens, TC-32, 24 h, read-out: EC50 (concentration of drug that inhibits growth of the tumor cells by 50% as compared to vehicle-treated control)
Source text: (§1) The combination index (CI) accounts for the dose response of single drugs to determine the combination effect. […] Enzyme Regul. 22:27-55. The equation for calculating CI is as follows: […]

TC-71 cells = experiment: cells; conditions: Homo sapiens, TC-71, 24 h, read-out: EC50 (concentration of drug that inhibits growth of the tumor cells by 50% as compared to vehicle-treated control)
Source text: as §1

[3] = metformin 500-1000 mg/day; cited from earlier work

For `Cc1ccc(NC(=O)c2ccc(CN3CCN(C)CC3)cc2)cc1Nc1nccc(-c2cccnc2)n1` [imatinib, imatinib mesylate], the Cytotoxicity (MB231-Bo cancer cells) was “did not show any cytotoxicity”, the Cytotoxicity (3T3 fibroblast cells) was “did not show any cytotoxicity” and the “Expression of 9 DNA repair genes (PRKDC, LIG4, MPG, ACTB, NEIL2, MLH1, RPA3, ATXN3, ERCC5)” value [1] was “significantly up-regulated”. For the same molecule, the “Expression of 11 DNA repair genes (MMS19, LIG4, B2M, RFC1, PARP2, BRCA2, TREX1, XPC, RAD23A, MUTYH, APEX1)” value [2] was “significantly up-regulated”.

For `COc1cccc2c1C(=O)c1c(O)c3c(c(O)c1C2=O)C[C@@](O)(C(=O)CO)C[C@@H]3O[C@H]1C[C@H](N)[C@H](O)[C@H](C)O1` [doxorubicin], the “Side-effects limiting clinical utility” value (sarcomas; clinical use) is given as “irreversible cardiac toxicity” and the “Share of sarcomas that respond to the drug” value (sarcomas; standard systemic therapy) is given as 20%.

With `CN(C)C(=N)N=C(N)N` [metformin, Metformin hydrochloride] the EC50 (TC-32 cells) was 11.8 mM, the EC50 (TC-71 cells) was 11.6 mM and the Cytotoxicity (MB231-Bo cancer cells) was “did not show any cytotoxicity”. The Cytotoxicity (3T3 fibroblast cells) was “did not show any cytotoxicity”, the Plasma levels [3] was “about 1.1 mg/L” and the “Plasma levels, molar equivalent” value [3] was 7 µM.
